Experiment: Determination of log P values by HPLC (reversed-phase C18)
Format: physicochemical
Details: HPLC, reversed-phase C18, 55° C.; final compounds table
Method: 1) Description of Method for Determination of the Log P Values ([…]) The log P values given in the table were determined in accordance with EEC Directive 79/831 Annex V.A8 by HPLC (High Performance Liquid Chromatography) using a reversed-phase column (C 18). Temperature: 55° C. […] Gradient: from 10% eluent A/90% eluent B to 95% eluent A/5% eluent B in 4.25 min. Calibration was effected with unbranched alkan-2-ones (having 3 to 16 carbon atoms) with known log P values (log P values determined on the basis of the retention times by linear interpolation between two successive alkanones). The lambda max values were determined in the maxima of the chromatographic signals using the UV spectra from 200 nm to 400 nm.

Structure (SMILES)	log P neutral
O=C(Nc1ncn(-c2cccc(Cl)c2Cl)n1)c1ccccc1Cl [Compound I-1-52]	2.29
Cc1cccc(F)c1-n1cnc(NC(=O)c2ccccc2C(F)(F)F)n1 [Compound I-1-37]	2.19
O=C(Nc1ncn(-c2ccc(Cl)cc2Cl)n1)c1ccccc1C(F)(F)F [Compound I-1-53]	2.58
Cc1cccc(F)c1-n1cnc(NC(=O)c2ccccc2I)n1 [Compound I-1-39]	2.13
Cc1cc(C)c(S(=O)(=O)CC(F)(F)F)cc1-n1cnc(NC(=O)c2ccccc2C(F)(F)F)n1 [Compound I-1-96]	2.49
O=C(Nc1ncn(-c2cc(Cl)ccc2Cl)n1)c1ccccc1Cl [Compound I-1-55]	2.34
COc1cccc(C)c1-n1cnc(NC(=O)c2ccccc2Cl)n1 [Compound I-1-50]	1.95
COc1cccc(C)c1-n1cnc(NC(=O)c2ccccc2C(F)(F)F)n1 [Compound I-1-49]	2.15
O=C(Nc1ncn(-c2c(F)cccc2F)n1)c1ccsc1I [Compound I-1-94]	1.92
O=C(Nc1ncn(-c2c(F)cccc2Cl)n1)c1ccccc1Cl [Compound I-1-36]	1.83
O=C(Nc1ncn(-c2c(Br)cc(F)cc2Br)n1)c1ccccc1Cl [Compound I-1-88]	2.26
O=C(Nc1ncn(-c2c(F)c(F)c(F)c(F)c2F)n1)c1ccccc1Cl [Compound I-1-66]	2.28
O=C(Nc1ncn(-c2c(F)cccc2I)n1)c1ccccc1Cl [Compound I-1-84]	2.02
Cc1cccc(C)c1-n1cnc(NC(=O)c2ccccc2Cl)n1 [Compound I-1-47]	2.04
Cc1cccc(C)c1-n1cnc(NC(=O)c2ccccc2C(F)(F)F)n1 [Compound I-1-48]	2.26
Cc1cc(C)c(-n2cnc(NC(=O)c3ccccc3C(F)(F)F)n2)cc1SCC(F)(F)F [Compound I-1-98]	3.21
O=C(Nc1ncn(-c2c(F)cccc2Cl)n1)c1ccccc1OC(F)(F)F [Compound I-1-34]	2.30
O=C(Nc1ncn(-c2c(F)cccc2F)n1)c1cccnc1Cl [Compound I-1-23]	1.24
Cc1cccc(Cl)c1-n1cnc(NC(=O)c2ccccc2Cl)n1 [Compound I-1-41]	2.04
O=C(Nc1ncn(-c2cc(Cl)ccc2Cl)n1)c1ccccc1C(F)(F)F [Compound I-1-54]	2.55
CCc1ccccc1C(=O)Nc1ncn(-c2ccccc2C(F)(F)F)n1 [Compound I-1-95]	2.33
Cc1cccc(F)c1-n1cnc(NC(=O)c2ccccc2Cl)n1 [Compound I-1-38]	1.99

Now from value to compound:

log P neutral	Structure (SMILES)
1.96	O=C(Nc1ncn(-c2ccccc2Br)n1)c1ccccc1Cl [Compound I-1-71]
2.10	O=C(Nc1ncn(-c2ccccc2Cl)n1)c1ccccc1C(F)(F)F [Compound I-1-3]
2.01	O=C(Nc1ncn(-c2ccccc2I)n1)c1ccccc1Cl [Compound I-1-76]
1.88	O=C(Nc1ncn(-c2ccccc2F)n1)c1ccccc1Cl [Compound I-1-1]
2.34	CCc1ccccc1C(=O)Nc1ncn(-c2ccccc2Br)n1 [Compound I-1-73]
1.91	O=C(Nc1ncn(-c2ccccc2Cl)n1)c1ccccc1Cl [Compound I-1-5]
2.31	CCc1ccccc1C(=O)Nc1ncn(-c2ccccc2I)n1 [Compound I-1-78]
2.15	O=C(Nc1ncn(-c2ccccc2I)n1)c1ccccc1I [Compound I-1-77]
2.06	O=C(Nc1ncn(-c2ccccc2F)n1)c1ccccc1C(F)(F)F [Compound I-1-2]
2.06	O=C(Nc1ncn(-c2ccccc2C(F)(F)F)n1)c1ccccc1Cl [Compound I-1-7]
2.32	O=C(Nc1ncn(-c2ccccc2OC(F)(F)F)n1)c1ccccc1Cl [Compound I-1-9]

Same assay, conditions: N-[1-aryl-1H-1,2,4-triazol-3-yl]benzamides, formula (1-9)

Structure (SMILES)	logP (neutral)
O=C(Nc1ncn(-c2c(F)c(F)c(F)c(F)c2F)n1)c1ccccc1 [1-9 R1=F R2m=3,4,5,6-F4]	2.11
O=C(Nc1ncn(-c2c(Br)cc(F)cc2Br)n1)c1ccccc1 [1-9 R1=Br R2m=6-Br-4-F]	2.14
O=C(Nc1ncn(-c2c(F)cc(F)cc2F)n1)c1ccccc1 [1-9 R1=F R2m=4,6-F2]	1.71

Results, then the compound that gave them:

logP (neutral)	Structure (SMILES)
1.87	O=C(Nc1ncn(-c2ccccc2I)n1)c1ccccc1 [1-9 R1=I R2m=—]
1.80	O=C(Nc1ncn(-c2ccccc2Br)n1)c1ccccc1 [1-9 R1=Br R2m=—]
1.79	O=C(Nc1ncn(-c2c(F)cccc2I)n1)c1ccccc1 [1-9 R1=F R2m=6-I]
2.17	O=C(Nc1ncn(-c2cc(Cl)ccc2Cl)n1)c1ccccc1 [1-9 R1=Cl R2m=5-Cl]
1.75	O=C(Nc1ncn(-c2c(F)cccc2Cl)n1)c1ccccc1 [1-9 R1=Cl R2m=6-F]
1.92	Cc1cccc(Cl)c1-n1cnc(NC(=O)c2ccccc2)n1 [1-9 R1=Cl R2m=6-CH3]
2.18	O=C(Nc1ncn(-c2ccc(Cl)cc2Cl)n1)c1ccccc1 [1-9 R1=Cl R2m=4-Cl]
1.75	O=C(Nc1ncn(-c2ccccc2Cl)n1)c1ccccc1 [1-9 R1=Cl R2m=—]
1.73	O=C(Nc1ncn(-c2c(F)ccc(F)c2F)n1)c1ccccc1 [1-9 R1=F R2m=3,6-F2]
2.2	CCc1cccc(Cl)c1-n1cnc(NC(=O)c2ccccc2)n1 [1-9 R1=Cl R2m=6-C2H5]
1.69	O=C(Nc1ncn(-c2ccccc2F)n1)c1ccccc1 [1-9 R1=F R2m=—]
2.11	O=C(Nc1ncn(-c2cccc(Cl)c2Cl)n1)c1ccccc1 [1-9 R1=Cl R2m=3-Cl]
2.15	O=C(Nc1ncn(-c2ccccc2OC(F)(F)F)n1)c1ccccc1 [1-9 R1=OCF3 R2m=—]

Same assay, conditions: compounds of formula (IIa-1), R3 hydrogen

logP (neutral)	Structure (SMILES)
0.98	COc1cccc(C)c1-n1cnc(N)n1 [IIa-1 R1=CH3 R2m=6-OCH3]
1.03	Nc1ncn(-c2ccccc2Br)n1 [IIa-1 R1=Br R2m=—]
1.13	Nc1ncn(-c2ccccc2I)n1 [IIa-1 R1=I R2m=—]
0.96	Nc1ncn(-c2ccccc2Cl)n1 [IIa-1 R1=Cl R2m=—]
0.84	Nc1ncn(-c2c(F)ccc(F)c2F)n1 [IIa-1 R1=F R2m=3,6-F2-phenyl]
1.44	Nc1ncn(-c2cc(Cl)ccc2Cl)n1 [IIa-1 R1=Cl R2m=5% Cl:]
1.35	Nc1ncn(-c2c(Br)cc(F)cc2Br)n1 [IIa-1 R1=Br R2m=6-Br-4-F]
1.44	Nc1ncn(-c2ccccc2OC(F)(F)F)n1 [IIa-1 R1=OCF3 R2m=—]
1.2	Nc1ncn(-c2c(Br)cccc2Br)n1 [IIa-1 R1=Br R2m=6-Br]
0.82	Nc1ncn(-c2c(F)cc(F)cc2F)n1 [IIa-1 R1=F R2m=4,6-F2]
1.12	CCc1cccc(Cl)c1-n1cnc(N)n1 [IIa-1 R1=Cl R2m=6-C2H5]
1.48	Nc1ncn(-c2ccc(Cl)cc2Cl)n1 [IIa-1 R1=Cl R2m=4-Cl]
1.16	Nc1ncn(-c2ccccc2C(F)(F)F)n1 [IIa-1 R1=CF3 R2m=—]
0.86	Nc1ncn(-c2c(F)cccc2Cl)n1 [IIa-1 R1=Cl R2m=6-F]
0.94	Nc1ncn(-c2c(Cl)cccc2Cl)n1 [IIa-1 R1=Cl R2m=6% Cl:]
1.07	Nc1ncn(-c2c(F)cccc2I)n1 [IIa-1 R1=F R2m=6-I]

Same assay, conditions: reversed-phase C18 HPLC column, pH 3.4; HPLC-MS, preparation examples; read-out: log P

chromatographic logP	Structure (SMILES)
1.17	O=C(Nc1nn[nH]n1)c1ccccc1C(F)(F)F [N-(2H-Tetrazol-5-yl)-2-(trifluoromethyl)benzamide]
2.35	COc1cc(F)ccc1-n1nnc(NC(=O)c2ccccc2C(F)(F)F)n1 [Compound I-2-2, N-[2-(4-Fluoro-2-methoxyphenyl)-2H-tetrazol-5-yl]-2-(trifluoromethyl)benzamide]
0.3	Nc1ncn(-c2ncc(F)cc2F)n1 [1-(3,5-Difluoropyridin-2-yl)-1H-1,2,4-triazol-3-amine]

Same assay, conditions: reversed-phase C18 HPLC column; HPLC, reversed-phase C18, 55° C.; final compounds table; read-out: log P neutral

chromatographic logP	Structure (SMILES)
2.35	COc1cc(F)ccc1-n1nnc(NC(=O)c2ccccc2C(F)(F)F)n1 [Compound I-2-2, N-[2-(4-Fluoro-2-methoxyphenyl)-2H-tetrazol-5-yl]-2-(trifluoromethyl)benzamide]

Same assay, conditions: reversed-phase C18 HPLC column; HPLC-MS, preparation examples; read-out: log P (neutral)

Structure (SMILES)	chromatographic logP
Nc1noc(-c2ccccc2)n1 [5-Phenyl-1,2,4-oxadiazol-3-amine]	1.28
Nc1ncn(-c2c(F)cccc2C(F)(F)F)n1 [1-[2-Fluoro-6-(trifluoromethyl)phenyl]-1H-1,2,4-triazol-3-amine]	1.09
CCO/C=N/c1noc(-c2ccccc2)n1 [Ethyl [5-phenyl-1,2,4-oxadiazol-3-yl]imidoformate]	2.87
CO/C(=N\C#N)c1ccccc1 [Methyl N-cyanobenzenecarboximidoate]	1.83
Nc1ncn(-c2c(F)cccc2F)n1 [1-(2,6-Difluorophenyl)-1H-1,2,4-triazol-3-amine]	0.61

The remaining lines, values ahead:

chromatographic logP	Structure (SMILES)
1.59	O=C(Nc1ncn(-c2c(F)cccc2F)n1)c1ccccc1 [N-[1-(2,6-Difluorophenyl)-1H-1,2,4-triazol-3-yl]benzamide]
1.95	O=C(Nc1ncn(-c2c(F)cccc2C(F)(F)F)n1)c1ccccc1 [N-{1-[2-Fluoro-6-(trifluoromethyl)phenyl]-1H-1,2,4-triazol-3-yl}benzamide]
1.79	O=C(Nc1ncn(-c2c(F)cccc2Br)n1)c1ccccc1 [N-[1-(2-Bromo-6-fluorophenyl)-1H-1,2,4-triazol-3-yl]benzamide]
